Results on 1 molecule are retold here after patent US8541645B2, “Animal model for cigarette-smoke-induced atherosclerosis and related methods” (University of Calcutta, priority 2009, dated 2013).

Assay [1] concerns CS-induced atherosclerosis in guinea pig aorta. Nature of the assay: Cigarette-smoke-induced atherosclerosis in guinea pig aorta (H&E and Oil red O staining of aortic sections). Conditions: dietary supplementation of vitamin C 5 mg/day in addition to CS exposure; aortic sections stained with H&E or Oil red O (FIG. 3). The format is in vivo. How it is done: Two to six, preferably three to four, month old male guinea pigs weighing between about 350 to about 450 grams (g) are used. All animals are maintained on a vitamin C-free diet for 7 days in order to minimize the in vivo levels of vitamin C in plasma and tissues. After 7 days of vitamin C deprivation, the guinea pigs are given a dietary supplementation of about 1 milligram (mg) of vitamin C per day (1 mg vitamin C/day) to prevent the onset of scurvy. (It is known that a dose of 0.8 mg vitamin C/day is sufficient to maintain guinea pigs without the development of scurvy.) Thereafter, the guinea pigs are subjected to cigarette smoke exposure (3 cigarettes per animal per day (3 cigarettes/animal/day) with 2 puffs per cigarette (2 puffs/cigarette)). Two puffs per cigarette indicate that the burning of a cigarette is divided into two halves. In each half, animals are exposed to cigarette smoke for a period of 1 minute (min.). There is an interval of 1 min. between these two halves. During this interval, animals are exposed to normal atmospheric air. Likewise, 3 puffs/cigarette would indicate that the burning of a cigarette is divided into three approximately equal parts with two intervals in between. […]

The next assay deals with scurvy. Conditions: dietary; cited from earlier work.

Molecules are shown by their SMILES.

For the molecule `O=C1O[C@H]([C@@H](O)CO)C(O)=C1O` [vitamin C, L-ascorbic acid], the “effect on CS-induced atherogenic changes in guinea pig aorta” value in assay [1] was “prevents CS-induced atherogenic changes”. Further, the “dose sufficient to maintain guinea pigs without the development of scurvy” value with scurvy is given as 0.8 mg vitamin C/day.
